{"source": "patent US20070173462A1", "about": "“Treatment of diseases associated with the use of antibiotics” (Optimer Pharmaceuticals, Inc., priority 2004, published 2007)", "system": "C. difficile", "assay": "MIC via agar dilution, 110 genetically distinct clinical isolates of C. difficile", "type": "cell-based", "key": {"[1]": {"details": "Clostridioides difficile, 110 clinical isolates, agar dilution"}}, "note": "Where two headings read alike, the source gives them in different places."}
{"compound": "CCc1c(Cl)c(O)c(Cl)c(O)c1C(=O)O[C@H]1[C@H](O)[C@H](OC)[C@H](OC/C2=C\\C=C\\C[C@H](O)/C(C)=C/[C@H](CC)C(O[C@@H]3OC(C)(C)[C@@H](OC(=O)C(C)C)[C@H](O)[C@@H]3O)/C(C)=C/C(C)=C/C[C@@H](C(C)O)OC2=O)O[C@@H]1C", "note": "(stereo partly shown) [Compound I]", "values": [{"measurement": "Range (MIC)", "setting": "110 clinical isolates, agar dilution", "result": "0.015 to 0.25", "unit": "µg/mL"}, {"measurement": "MIC", "setting": "Clostridioides difficile", "result": 0.125, "unit": "µg/mL"}, {"measurement": "MIC", "setting": "Clostridioides difficile, isolate ORG ID 61 5930, read-out: MIC", "result": 0.03, "unit": "µg/mL"}, {"measurement": "MIC", "setting": "Clostridioides difficile, isolate ORG ID 63 6029, read-out: MIC", "result": 0.25, "unit": "µg/mL"}, {"measurement": "MIC", "setting": "Clostridioides difficile, isolate ORG ID 65 5967, read-out: MIC", "result": 0.06, "unit": "µg/mL"}, {"measurement": "MIC", "setting": "Clostridioides difficile, isolate ORG ID 66 6366, read-out: MIC", "result": 0.015, "unit": "µg/mL"}, {"measurement": "MIC", "setting": "Clostridioides difficile, isolate ORG ID 68 6368, read-out: MIC", "result": 0.03, "unit": "µg/mL"}, {"measurement": "MIC", "setting": "Clostridioides difficile, isolate ORG ID 69 6370, read-out: MIC", "result": 0.25, "unit": "µg/mL"}, {"measurement": "MIC", "setting": "Clostridioides difficile, isolate ORG ID 73 6382, read-out: MIC", "result": 0.25, "unit": "µg/mL"}, {"measurement": "MIC", "setting": "Clostridioides difficile, isolate ORG ID 77 6390, read-out: MIC", "result": 0.06, "unit": "µg/mL"}, {"measurement": "MIC", "setting": "Clostridioides difficile, isolate ORG ID 78 6392, read-out: MIC", "result": 0.015, "unit": "µg/mL"}, {"measurement": "MIC", "setting": "Clostridioides difficile, isolate ORG ID 82 6329, read-out: MIC", "result": 0.06, "unit": "µg/mL"}, {"measurement": "MIC", "setting": "Clostridioides difficile, isolate ORG ID 83 6330, read-out: MIC", "result": 0.06, "unit": "µg/mL"}, {"measurement": "MIC", "setting": "Clostridioides difficile, isolate ORG ID 85 6332, read-out: MIC", "result": 0.06, "unit": "µg/mL"}, {"measurement": "MIC", "setting": "Clostridioides difficile, isolate ORG ID 86 6333, read-out: MIC", "result": 0.03, "unit": "µg/mL"}, {"measurement": "MIC", "setting": "Clostridioides difficile, isolate ORG ID 89 6336, read-out: MIC", "result": 0.25, "unit": "µg/mL"}, {"measurement": "MIC", "setting": "Clostridioides difficile, isolate ORG ID 94 6343, read-out: MIC", "result": 0.015, "unit": "µg/mL"}, {"measurement": "MIC", "setting": "Clostridioides difficile, isolate ORG ID 96 6348, read-out: MIC", "result": 0.06, "unit": "µg/mL"}, {"measurement": "MIC", "setting": "Clostridioides difficile, isolate ORG ID 97 6349, read-out: MIC", "result": 0.25, "unit": "µg/mL"}, {"measurement": "MIC", "setting": "Clostridioides difficile, isolate ORG ID 101 6354, read-out: MIC", "result": 0.015, "unit": "µg/mL"}, {"measurement": "MIC", "setting": "Clostridioides difficile, isolate ORG ID 102 6355, read-out: MIC", "result": 0.016, "unit": "µg/mL"}, {"measurement": "MIC", "setting": "Clostridioides difficile, isolate ORG ID 103 6068, read-out: MIC", "result": 0.06, "unit": "µg/mL"}, {"measurement": "MIC", "setting": "Clostridioides difficile, isolate ORG ID 104 6060, read-out: MIC", "result": 0.03, "unit": "µg/mL"}, {"measurement": "MIC", "setting": "Clostridioides difficile, isolate ORG ID 105 6071, read-out: MIC", "result": 0.03, "unit": "µg/mL"}, {"measurement": "MIC", "setting": "Clostridioides difficile, isolate ORG ID 106 6078, read-out: MIC", "result": 0.03, "unit": "µg/mL"}, {"measurement": "MIC", "setting": "Clostridioides difficile, isolate ORG ID 107 6079, read-out: MIC", "result": 0.06, "unit": "µg/mL"}, {"measurement": "MIC", "setting": "Clostridioides difficile, isolate ORG ID 109 6274, read-out: MIC", "result": 0.015, "unit": "µg/mL"}, {"measurement": "MIC", "setting": "Clostridioides difficile, isolate ORG ID 111 6279, read-out: MIC", "result": 0.03, "unit": "µg/mL"}, {"measurement": "MIC", "setting": "Clostridioides difficile, isolate ORG ID 112 6280, read-out: MIC", "result": 0.06, "unit": "µg/mL"}, {"measurement": "MIC", "setting": "Clostridioides difficile, isolate ORG ID 113 6304, read-out: MIC", "result": 0.06, "unit": "µg/mL"}, {"measurement": "MIC", "setting": "Clostridioides difficile, isolate ORG ID 114 386, read-out: MIC", "result": 0.06, "unit": "µg/mL"}, {"measurement": "MIC", "setting": "Clostridioides difficile, isolate ORG ID 115 5985, read-out: MIC", "result": 0.015, "unit": "µg/mL"}, {"measurement": "MIC", "setting": "Clostridioides difficile, isolate ORG ID 116 5702, read-out: MIC", "result": 0.06, "unit": "µg/mL"}, {"measurement": "MIC", "setting": "Clostridioides difficile, isolate ORG ID 117 6026, read-out: MIC", "result": 0.06, "unit": "µg/mL"}, {"measurement": "MIC", "setting": "Clostridioides difficile, isolate ORG ID 120 6057, read-out: MIC", "result": 0.03, "unit": "µg/mL"}, {"measurement": "MIC", "setting": "Clostridioides difficile, isolate ORG ID 121 6072, read-out: MIC", "result": 0.06, "unit": "µg/mL"}, {"measurement": "MIC", "setting": "Clostridioides difficile, isolate ORG ID 122 6111, read-out: MIC", "result": 0.25, "unit": "µg/mL"}, {"measurement": "MIC", "setting": "Clostridioides difficile, isolate ORG ID AA2 4380, read-out: MIC", "result": 0.015, "unit": "µg/mL"}, {"measurement": "MIC", "setting": "Clostridioides difficile, isolate ORG ID AB2 1725, read-out: MIC", "result": 0.06, "unit": "µg/mL"}, {"measurement": "MIC", "setting": "Clostridioides difficile, isolate ORG ID AC1 1546, read-out: MIC", "result": 0.06, "unit": "µg/mL"}, {"measurement": "MIC", "setting": "Clostridioides difficile, isolate ORG ID AJ1 1557, read-out: MIC", "result": 0.06, "unit": "µg/mL"}, {"measurement": "MIC", "setting": "Clostridioides difficile, isolate ORG ID AL1 1753, read-out: MIC", "result": 0.06, "unit": "µg/mL"}, {"measurement": "MIC", "setting": "Clostridioides difficile, isolate ORG ID AV1 941, read-out: MIC", "result": 0.25, "unit": "µg/mL"}, {"measurement": "MIC", "setting": "Clostridioides difficile, isolate ORG ID B1 832, read-out: MIC", "result": 0.06, "unit": "µg/mL"}, {"measurement": "MIC", "setting": "Clostridioides difficile, isolate ORG ID BH1 4506, read-out: MIC", "result": 0.06, "unit": "µg/mL"}, {"measurement": "MIC", "setting": "Clostridioides difficile, isolate ORG ID BM1 1453, read-out: MIC", "result": 0.06, "unit": "µg/mL"}, {"measurement": "MIC", "setting": "Clostridioides difficile, isolate ORG ID BR1 1321, read-out: MIC", "result": 0.06, "unit": "µg/mL"}, {"measurement": "MIC", "setting": "Clostridioides difficile, isolate ORG ID BT1 706, read-out: MIC", "result": 0.06, "unit": "µg/mL"}, {"measurement": "MIC", "setting": "Clostridioides difficile, isolate ORG ID CB1 1584, read-out: MIC", "result": 0.25, "unit": "µg/mL"}, {"measurement": "MIC", "setting": "Clostridioides difficile, isolate ORG ID CL1 3851, read-out: MIC", "result": 0.25, "unit": "µg/mL"}, {"measurement": "MIC", "setting": "Clostridioides difficile, isolate ORG ID CN1 667, read-out: MIC", "result": 0.25, "unit": "µg/mL"}, {"measurement": "MIC", "setting": "Clostridioides difficile, isolate ORG ID CO1 4652, read-out: MIC", "result": 0.25, "unit": "µg/mL"}, {"measurement": "MIC", "setting": "Clostridioides difficile, isolate ORG ID D1 1360, read-out: MIC", "result": 0.03, "unit": "µg/mL"}, {"measurement": "MIC", "setting": "Clostridioides difficile, isolate ORG ID E1 816, read-out: MIC", "result": 0.06, "unit": "µg/mL"}, {"measurement": "MIC", "setting": "Clostridioides difficile, isolate ORG ID J1 5971, read-out: MIC", "result": 0.06, "unit": "µg/mL"}, {"measurement": "MIC", "setting": "Clostridioides difficile, isolate ORG ID J7 4224, read-out: MIC", "result": 0.03, "unit": "µg/mL"}, {"measurement": "MIC", "setting": "Clostridioides difficile, isolate ORG ID J9 4478, read-out: MIC", "result": 0.06, "unit": "µg/mL"}, {"measurement": "MIC", "setting": "Clostridioides difficile, isolate ORG ID O1 1861, read-out: MIC", "result": 0.06, "unit": "µg/mL"}, {"measurement": "MIC", "setting": "Clostridioides difficile, isolate ORG ID R6 6015, read-out: MIC", "result": 0.015, "unit": "µg/mL"}, {"measurement": "MIC", "setting": "Clostridioides difficile, isolate ORG ID Y1 5639, read-out: MIC", "result": 0.06, "unit": "µg/mL"}, {"measurement": "MIC", "setting": "Clostridioides difficile, isolate ORG ID Y2 1459, read-out: MIC", "result": 0.06, "unit": "µg/mL"}, {"measurement": "MIC", "setting": "Clostridioides difficile, isolate ORG ID Z1 3036, read-out: MIC", "result": 0.03, "unit": "µg/mL"}, {"measurement": "MIC50", "setting": "[1]", "result": 0.125, "unit": "µg/mL"}, {"measurement": "MIC90", "setting": "[1]", "result": 0.125, "unit": "µg/mL"}, {"measurement": "MIC", "setting": "Clostridioides difficile, 110 clinical isolates, agar dilution, read-out: Geometric Mean (MIC)", "result": 0.08, "unit": "µg/mL"}, {"measurement": "MIC", "setting": "isolate ORG ID 64 5940", "result": 0.125, "unit": "µg/mL"}, {"measurement": "MIC", "setting": "isolate ORG ID 67 6367", "result": 0.125, "unit": "µg/mL"}]}
